Tests used:
[1] = pK1 was determined; format: ADME; conditions: read-out: pK1
[2] = pK2 was determined; format: ADME; conditions: read-out: pK2

**Q.** With `[O-]/[N+](O)=N\O` as the compound, how does the pKa [1] read?
**A.** 3

**Q.** And the pKa [2]?
**A.** 9.35

From ChEMBL document CHEMBL1139459, “Effects of pH on the cytotoxicity of sodium trioxodinitrate (Angeli's salt)” (J Med Chem, 2004)
